Where two headings read alike, the source gives them in different places.
Legend:
RSV A2 strain = experiment: In vitro CPE (CytoPathic Effect) inhibition effect evaluation test, RSV type A; type: cell-based; conditions: inhibitory effect against RSV type A (RSV A2 strain), HEp-2 cells, CPE inhibition, read-out: EC50
In short: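 EC50 is the concentration giving 50% inhibition of virus-induced cytopathic effect, fitted by nonlinear regression from CellTiter-Glo 2.0 viability. Compounds in 3-fold series were co-incubated at 37 °C with HEp-2 cells and RSV: A2 strain for 4 days, B (Wash/18537) for 5 days; uninfected wells served as control.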

[1] = system: RSV B (Wash/18537 strain); experiment: In vitro CPE (CytoPathic Effect) inhibition effect evaluation test, RSV type B; type: cell-based; conditions: inhibitory effect against RSV type B, CPE inhibition, read-out: EC50
Protocol: The test sample is diluted in advance to an appropriate concentration with DMSO, and 3-fold series of serial dilutions were prepared on a 384-well plate (0.32 μL/well). HEp-2 cells (CCL-23; ATCC) adjusted at appropriate number (2.4×10^5 cells/mL) in 2% FBS E-MEM (prepared by adding kanamycin and FBS to Eagle's Minimum Essential Medium; Invitrogen) were added at 12.5 μL/well to the 384-well plate previously aliquoted with the test samples. The RSV A2 strain was diluted to an appropriate concentration in a culture medium and added to the 384-well plate containing the test sample at 12.5 μL/well. The culture medium was added additionally to the 384-well plate, and the test was started with 50 μL/well. Control wells were prepared with only virus-free culture medium. The plate was incubated in a 5% CO2 incubator at 37° C. for 4 days, and the plate was then placed at room temperature for 30 minutes. CellTiter-Glo (registered trademark) 2.0 assay (Promega) was added at 15 μL/well, mixed for 30 seconds, and the plate was placed for approximately 1 hour. The luminescent signal was then measured by EnVision (PerkinElmer). The inhibitory effect of the test agents on RSV-induced CPE was calculated as 0% and 100% inhibition rate for each sample concentration based on the level of remaining viable cells by CellTiter-Glo (registered trademark) 2.0, with the EC50 value for each compound calculated by nonlinear regression as the concentration that inhibits RSV-induced CPE by 50%. In the case of evaluation against RSV type B, RSV B (Wash/18537 strain) was infected in the same manner as the type A, cultured for 5 days, and quantitated in the same manner as for the A2 strain.

[2] = human respiratory syncytial virus

Structure (SMILES)	EC50 (RSV A2 strain; [2]) [nM]	further results
Cn1cc2c(n1)CCC(Oc1ccc3c(c1)C1(CCOCC1)CN3c1ncc(C(=O)NC3(C(=O)O)C4CC5CC(C4)CC3C5)c(C(F)(F)F)n1)C2 (racemic) [Compound I-189]	< 10	EC50 [1, 2]: < 10 nM
O=C(NC1(C(=O)O)C2CC3CC(C2)CC1C3)c1cnc(N2CC3(CCOC3)c3cc(OC4CCN(c5ncccn5)CC4)ccc32)nc1C(F)(F)F (racemic) [Compound I-257]	< 10	EC50 [1, 2]: < 10 nM
COCC(C)n1cc(-c2ncc(C(=O)NC3(C(=O)O)C4CC5CC(C4)CC3C5)c(C(F)(F)F)n2)c2ccc(OC3CCN(c4ncc(F)cn4)CC3)cc21 (racemic) [Compound I-430]	< 10	EC50 [1, 2]: < 10 nM
O=C(NC1(C(=O)O)C2CC3CC(C2)CC1C3)c1cnc(N2CC3(CCOC3)c3cc(OCC(F)(F)F)ccc32)nc1C(F)(F)F (racemic) [Compound I-466]	< 10	EC50 [1, 2]: 10 to 100 nM
O=C(NC1(C(=O)O)C2CC3CC(C2)CC1C3)c1cnc(N2CC3(CCOC3)c3cc(OC4CCN(CC(F)(F)F)CC4)ccc32)nc1C(F)(F)F (racemic) [Compound I-467]	< 10	EC50 [1, 2]: < 10 nM
O=C(NC1(C(=O)O)C2CC3CC(C2)CC1C3)c1cnc(N2CC3(CCCCC3)c3cc(OC4CCC(=NOC5CC(F)(F)C5)CC4)ccc32)nc1C(F)(F)F (racemic) [Compound I-475]	–	EC50 (RSV A2 strain): < 10 nM; EC50 [1]: 10 to 100 nM
CC1CC(Oc2ccc3c(-c4ncc(C(=O)NC5(C(=O)O)C6CC7CC(C6)CC5C7)c(C(F)(F)F)n4)cn(C4CCC(F)(F)CC4)c3c2)CCN1CC(F)(F)F (centres unmarked) [Compound I-414]	< 10	–
O=C(NC1(C(=O)O)C2CC3CC(C2)CC1C3)c1cnc(-c2cn(C3CCC(F)(F)CC3)c3cc(C(=O)N4CCC(N5CC(F)(F)C5)CC4)ccc23)nc1C(F)(F)F (centres unmarked) [Compound I-416]	< 10	–
O=C(NC1(C(=O)O)C2CC3CC(C2)CC1C3)c1cnc(-c2cn(C3CCC(F)(F)CC3)c3cc(CN4CCC(N5CC(F)(F)C5)CC4)ccc23)nc1C(F)(F)F (centres unmarked) [Compound I-417]	< 10	–
O=C(NC1(C(=O)O)C2CC3CC(C2)CC1C3)c1cnc(-c2cn(C3CCC(F)(F)CC3)c3cc(OC4CCC(F)(F)CC4)ccc23)nc1C(F)(F)F (centres unmarked) [Compound I-419]	< 10	–
O=C(NC1(C(=O)O)C2CC3CC(C2)CC1C3)c1cnc(-c2cn(C3CCC(F)(F)CC3)c3cc(OC4CCN(c5ncc(F)s5)CC4)ccc23)nc1C(F)(F)F (centres unmarked) [Compound I-420]	< 10	–
O=C(NC1(C(=O)O)C2CC3CC(C2)CC1C3)c1cnc(-c2cn(C3CCC(F)(F)CC3)c3cc(OC4CCN(CC5(F)CC5)CC4)ccc23)nc1C(F)(F)F (centres unmarked) [Compound I-425]	< 10	–
O=C(NC1(C(=O)O)C2CC3CC(C2)CC1C3)c1cnc(-c2cn(C3CCC(F)(F)CC3)c3cc(OCCN4CC(F)(F)C4)ccc23)nc1C(F)(F)F (centres unmarked) [Compound I-426]	< 10	–
O=C(NC1(C(=O)O)C2CC3CC(C2)CC1C3)c1cnc(-c2cn(C3CCC(F)(F)CC3)c3cc(OC4CCC(C(F)(F)F)CC4)ccc23)nc1C(F)(F)F (centres unmarked) [Compound I-428]	< 10	–
O=C(NC1(C(=O)O)C2CC3CC(C2)CC1C3)c1cnc(-c2cn(C3CCC(F)(F)CC3)c3cc(OC4CCN(c5ncc(F)cc5F)CC4)ccc23)nc1C(F)(F)F (centres unmarked) [Compound I-432]	< 10	–
O=C(NC1(C(=O)O)C2CC3CC(C2)CC1C3)c1cnc(-c2cn(C3CCC(F)(F)CC3)c3cc(C(=O)N4CCN(c5ncc(F)cn5)CC4)ccc23)nc1C(F)(F)F (centres unmarked) [Compound I-433]	< 10	–
O=C(NC1(C(=O)O)C2CC3CC(C2)CC1C3)c1cnc(N2CC3(CCOCC3)c3cc(Nc4ncccn4)ccc32)nc1C(F)(F)F (centres unmarked) [Compound I-435]	< 10	–
O=C(NC1(C(=O)O)C2CC3CC(C2)CC1C3)c1cnc(N2CC3(CCOCC3)c3cc(Nc4ccc(C(F)(F)F)cn4)ccc32)nc1C(F)(F)F (centres unmarked) [Compound I-436]	< 10	–

Structure (SMILES)	EC50 (RSV A2 strain; [2]) [nM]	further results
O=C(NC1(C(=O)O)C2CC3CC(C2)CC1C3)c1cnc(N2CC3(CCCCC3)c3c2ccc(OC2CCN(c4ncccn4)CC2)c3F)nc1C(F)(F)F (centres unmarked) [Compound I-439]	< 10	–
CC(F)(F)c1nc(N2CC3(CCCCC3)c3cc(OC4CCN(CC(F)(F)F)CC4)ccc32)nc(C(C)(F)F)c1C(=O)NC1(C(=O)O)C2CC3CC(C2)CC1C3 (centres unmarked) [Compound I-441]	10 to 100	–
O=C(NC1(C(=O)O)C2CC3CC(C2)CC1C3)c1cnc(N2CC3(CCOCC3)c3cc(OCCC(F)(F)F)ccc32)nc1C(F)(F)F (centres unmarked) [Compound I-442]	< 10	–
O=C(NC1(C(=O)O)C2CC3CC(C2)CC1C3)c1cnc(-c2cn(Cc3ccccc3)c3cc(OC4CCN(c5ncc(F)cn5)CC4)ccc23)nc1C(F)(F)F (centres unmarked) [Compound I-446]	< 10	–
CN(CC(F)(F)F)[C@H]1CC[C@@H](Oc2ccc3c(-c4ncc(C(=O)NC5(C(=O)O)C6CC7CC(C6)CC5C7)c(C(F)(F)F)n4)cn(C4CCC(F)(F)CC4)c3c2)CC1 (some centres unmarked) [Compound I-448]	< 10	–
CN(CC(F)(F)F)[C@H]1CC[C@H](Oc2ccc3c(-c4ncc(C(=O)NC5(C(=O)O)C6CC7CC(C6)CC5C7)c(C(F)(F)F)n4)cn(C4CCC(F)(F)CC4)c3c2)CC1 (some centres unmarked) [Compound I-450]	< 10	–
COc1ccc2c(c1)c(-c1ncc(C(=O)NC3(C(=O)O)C4CC5CC(C4)CC3C5)c(C(F)(F)F)n1)cn2C1CCC(F)(F)CC1 (centres unmarked) [Compound I-454]	10 to 100	–
COc1ccc2c(-c3ncc(C(=O)NC4(C(=O)O)C5CC6CC(C5)CC4C6)c(C(F)(F)F)n3)cn(C3CCC(F)(F)CC3)c2c1 (centres unmarked) [Compound I-455]	10 to 100	–
O=C(NC1(C(=O)O)C2CC3CC(C2)CC1C3)c1cnc(N2CC3(CCCCC3)c3cc(O[C@H]4CC[C@H](ON=C5CCC(F)(F)CC5)CC4)ccc32)nc1C(F)(F)F (some centres unmarked) [Compound I-456]	10 to 100	–
O=C(NC1(C(=O)O)C2CC3CC(C2)CC1C3)c1cnc(N2CC3(CCCCC3)c3cc(O[C@H]4CC[C@@H](ON=C5CCC(F)(F)CC5)CC4)ccc32)nc1C(F)(F)F (some centres unmarked) [Compound I-457]	10 to 100	–
O=C(NC1(C(=O)O)C2CC3CC(C2)CC1C3)c1cnc(N2CC3(CCOCC3)c3cc(OCC(F)F)ccc32)nc1C(F)(F)F (centres unmarked) [Compound I-459]	< 10	–
O=C(NC1(C(=O)O)C2CC3CC(C2)CC1C3)c1cnc(N2CC3(CCCCC3)c3cc(O[C@H]4CC[C@H](ON=C5CC(F)(F)C5)CC4)ccc32)nc1C(F)(F)F (some centres unmarked) [Compound I-460]	< 10	–
O=C(NC1(C(=O)O)C2CC3CC(C2)CC1C3)c1cnc(N2CC3(CCCCC3)c3cc(O[C@H]4CC[C@@H](ON=C5CC(F)(F)C5)CC4)ccc32)nc1C(F)(F)F (some centres unmarked) [Compound I-461]	10 to 100	–
O=C(NC1(C(=O)O)C2CC3CC(C2)CC1C3)c1cnc(N2CC3(CCCC3)c3cc(O[C@H]4CC[C@H](N5CC(F)(F)C5)CC4)ccc32)nc1C(F)(F)F (some centres unmarked) [Compound I-462]	< 10	–
O=C(NC1(C(=O)O)C2CC3CC(C2)CC1C3)c1cnc(-c2cn(-c3ncccn3)c3cc(OC4CCN(c5ncc(F)cn5)CC4)ccc23)nc1C(F)(F)F (centres unmarked) [Compound I-468]	< 10	–
O=C(NC1(C(=O)O)C2CC3CC(C2)CC1C3)c1cnc(-c2cn(CCc3ccccc3)c3cc(OC4CCN(c5ncc(F)cn5)CC4)ccc23)nc1C(F)(F)F (centres unmarked) [Compound I-469]	< 10	–
O=C(NC1(C(=O)O)C2CC3CC(C2)CC1C3)c1cnc(N2CC3(CCOCC3)c3cc(-n4ncc5cccnc54)ccc32)nc1C(F)(F)F (centres unmarked) [Compound I-471]	< 10	–
